Assays:
Format in all cases: in vivo
[1] = test system: blackgrass (Alopecurus myosuroides); assay: Test A postemergence greenhouse test
Text: (§1) Seeds of plant species selected from barnyardgrass (Echinochloa crus-galli), kochia (Kochia scoparia), ragweed (common ragweed, Ambrosia elatior), ryegrass, Italian (Lolium multiflorum), foxtail, giant (Setaria faberii), foxtail, green (Setaria viridis) and pigweed (Amaranthus retroflexus) were planted into a blend of loam soil and sand and treated preemergence with a directed soil spray using test chemicals formulated in a non-phytotoxic solvent mixture which included a surfactant.
(§2) At the same time, plants selected from these weed species and also wheat (Triticum aestivum), corn (Zea mays), blackgrass (Alopecurus myosuroides) and galium (catchweed bedstraw, Galium aparine) were planted in pots containing the same blend of loam soil and sand and treated with postemergence applications of test chemicals formulated in the same manner. Plants ranged in height from 2 to 10 cm and were in the one- to two-leaf stage for the postemergence treatment. Treated plants and untreated controls were maintained in a greenhouse for approximately 10 d, after which time all treated plants were compared to untreated controls and visually evaluated for injury. Plant response ratings, summarized in Table A, are based on a 0 to 100 scale where 0 is no effect and 100 is complete control. A dash (-) response means no test result.

[2] = test system: galium (catchweed bedstraw, Galium aparine); assay: Test A postemergence greenhouse test
Text: as §1, §2

[3] = test system: barnyardgrass (Echinochloa crus-galli); assay: Test C pre-/postemergence greenhouse test; conditions: scale 0 to 100
In short: (§3)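 Test chemicals in a non-phytotoxic solvent mixture with surfactant; preemergence on seeds sown in silt loam, postemergence on plants 2–18 cm tall (1- to 4-leaf stage) in peat/vermiculite medium. Greenhouse for 13–21 d, then visual rating against untreated controls, 0 (no effect) to 100 (complete control).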

[4] = test system: blackgrass (Alopecurus myosuroides); assay: Test C pre-/postemergence greenhouse test; conditions: scale 0 to 100
In short: as §3

corn (Zea mays) = assay: Test C pre-/postemergence greenhouse test; conditions: scale 0 to 100
In short: as §3

kochia (Kochia scoparia) = assay: Test C pre-/postemergence greenhouse test; conditions: Postemergence, scale 0 to 100
In short: as §3

[5] = test system: lambsquarters (Chenopodium album); assay: Test C pre-/postemergence greenhouse test; conditions: scale 0 to 100
In short: as §3

[6] = test system: morningglory (Ipomoea coccinea); assay: Test C pre-/postemergence greenhouse test; conditions: scale 0 to 100
In short: as §3

[7] = test system: nutsedge, yellow (Cyperus esculentus); assay: Test C pre-/postemergence greenhouse test; conditions: scale 0 to 100
In short: as §3

[8] = test system: ragweed (common ragweed, Ambrosia elatior); assay: Test C pre-/postemergence greenhouse test; conditions: scale 0 to 100
In short: as §3

[9] = test system: waterhemp (common waterhemp, Amaranthus rudis); assay: Test C pre-/postemergence greenhouse test; conditions: scale 0 to 100
In short: as §3

Cc1ccc2ccc(C)c(-c3c(O)c(Cl)nn(C)c3=O)c2c1 [Cpd. No. 20, 6-chloro-4-(2,7-dimethyl-1-naphthalenyl)-5-hydroxy-2-methyl-3(2H)-pyridazinone]
0: Plant response rating (0 to 100 scale) ([1]; 31 g ai/ha) | Plant response rating, Corn (corn (Zea mays); Postemergence, 16 g ai/ha) | Plant response rating, Corn (corn (Zea mays); Preemergence, 31 g ai/ha) | Plant response rating, Corn (corn (Zea mays); Preemergence, 61 g ai/ha)
98: Plant response rating, Kochia (kochia (Kochia scoparia); 125 g ai/ha) | Plant response rating, Nutsedge, Yellow ([7]; Postemergence, 125 g ai/ha) | Plant response rating, Nutsedge, Yellow ([7]; Preemergence, 125 g ai/ha) | Plant response rating, Ragweed ([8]; Postemergence, 125 g ai/ha)
45: Plant response rating, Blackgrass ([4]; Postemergence, 125 g ai/ha)
60: Plant response rating (0 to 100 scale) ([1]; 125 g ai/ha)
65: Plant response rating, Ragweed ([8]; Preemergence, 61 g ai/ha) | Plant response rating, Waterhemp ([9]; Preemergence, 61 g ai/ha)
80: Plant response rating, Kochia (kochia (Kochia scoparia); 16 g ai/ha) | Plant response rating, Lambsquarters ([5]; Preemergence, 61 g ai/ha)
5: Plant response rating, Corn (corn (Zea mays); Postemergence, 31 g ai/ha) | Plant response rating, Corn (corn (Zea mays); Postemergence, 62 g ai/ha) | Plant response rating, Corn (corn (Zea mays); Preemergence, 62 g ai/ha)
75: Plant response rating, Barnyardgrass ([3]; Postemergence, 31 g ai/ha) | Plant response rating, Barnyardgrass ([3]; Postemergence, 62 g ai/ha) | Plant response rating, Lambsquarters ([5]; Postemergence, 16 g ai/ha) | Plant response rating, Lambsquarters ([5]; Preemergence, 31 g ai/ha) | Plant response rating, Waterhemp ([9]; Postemergence, 16 g ai/ha)
85: Plant response rating, Barnyardgrass ([3]; Postemergence, 125 g ai/ha) | Plant response rating, Barnyardgrass ([3]; Preemergence, 31 g ai/ha) | Plant response rating, Blackgrass ([4]; Preemergence, 31 g ai/ha) | Plant response rating, Blackgrass ([4]; Preemergence, 62 g ai/ha) | Plant response rating, Kochia (kochia (Kochia scoparia); 31 g ai/ha) | Plant response rating, Morningglory ([6]; Preemergence, 31 g ai/ha) | Plant response rating, Ragweed ([8]; Postemergence, 16 g ai/ha)
40: Plant response rating, Blackgrass ([4]; Postemergence, 62 g ai/ha) | Plant response rating, Nutsedge, Yellow ([7]; Preemergence, 61 g ai/ha)
35: Plant response rating, Corn (corn (Zea mays); Preemergence, 125 g ai/ha)
20: Plant response rating, Blackgrass ([4]; Postemergence, 16 g ai/ha) | Plant response rating, Blackgrass ([4]; Preemergence, 61 g ai/ha) | Plant response rating, Corn (corn (Zea mays); Postemergence, 125 g ai/ha)
90: Plant response rating (0 to 100 scale) ([2]; 31 g ai/ha) | Plant response rating, Blackgrass ([4]; Preemergence, 125 g ai/ha) | Plant response rating, Kochia (kochia (Kochia scoparia); 62 g ai/ha) | Plant response rating, Lambsquarters ([5]; Postemergence, 31 g ai/ha) | Plant response rating, Nutsedge, Yellow ([7]; Postemergence, 16 g ai/ha) | Plant response rating, Nutsedge, Yellow ([7]; Postemergence, 31 g ai/ha) | Plant response rating, Ragweed ([8]; Postemergence, 31 g ai/ha)
95: Plant response rating, Barnyardgrass ([3]; Preemergence, 62 g ai/ha) | Plant response rating, Lambsquarters ([5]; Postemergence, 62 g ai/ha) | Plant response rating, Lambsquarters ([5]; Postemergence, 125 g ai/ha) | Plant response rating, Morningglory ([6]; Preemergence, 62 g ai/ha) | Plant response rating, Morningglory ([6]; Preemergence, 125 g ai/ha) | Plant response rating, Nutsedge, Yellow ([7]; Postemergence, 62 g ai/ha) | Plant response rating, Nutsedge, Yellow ([7]; Preemergence, 31 g ai/ha) | Plant response rating, Nutsedge, Yellow ([7]; Preemergence, 62 g ai/ha) | Plant response rating, Ragweed ([8]; Postemergence, 62 g ai/ha) | Plant response rating, Waterhemp ([9]; Postemergence, 62 g ai/ha) | Plant response rating, Waterhemp ([9]; Postemergence, 125 g ai/ha)
30: Plant response rating, Blackgrass ([4]; Postemergence, 31 g ai/ha)
55: Plant response rating, Barnyardgrass ([3]; Postemergence, 16 g ai/ha)
100: Plant response rating (0 to 100 scale) ([2]; 125 g ai/ha) | Plant response rating, Barnyardgrass ([3]; Preemergence, 125 g ai/ha) | Plant response rating, Lambsquarters ([5]; Preemergence, 62 g ai/ha) | Plant response rating, Lambsquarters ([5]; Preemergence, 125 g ai/ha) | Plant response rating, Morningglory ([6]; Postemergence, 16 g ai/ha) | Plant response rating, Morningglory ([6]; Postemergence, 31 g ai/ha) | Plant response rating, Morningglory ([6]; Postemergence, 62 g ai/ha) | Plant response rating, Morningglory ([6]; Postemergence, 125 g ai/ha) | Plant response rating, Ragweed ([8]; Preemergence, 31 g ai/ha) | Plant response rating, Ragweed ([8]; Preemergence, 62 g ai/ha) | Plant response rating, Ragweed ([8]; Preemergence, 125 g ai/ha) | Plant response rating, Waterhemp ([9]; Preemergence, 31 g ai/ha) | Plant response rating, Waterhemp ([9]; Preemergence, 62 g ai/ha) | Plant response rating, Waterhemp ([9]; Preemergence, 125 g ai/ha)
70: Plant response rating, Barnyardgrass ([3]; Preemergence, 61 g ai/ha) | Plant response rating, Morningglory ([6]; Preemergence, 61 g ai/ha) | Plant response rating, Waterhemp ([9]; Postemergence, 31 g ai/ha)

Reference: patent publication US12435044B2, “Pyridazinone herbicides and pyridazinone intermediates used to prepare a herbicide” (FMC Corporation, priority 2018, dated 2025)
